Binding data for 1 molecule are collected here from publication PMC8509669 (2021).

Common to all, as to experiment: ThT fluorescence light-up
Assay [1] relates to FenA5-ThT (DNA, aptamer) ACGACCGCAGGGCGTGAGAGCCGGAACGGTGCATCGTCGT
The conditions noted are these: 10 mM NaCl; 10 mM Tris-HCl pH 7.0, 30 °C; 1 µM aptamer.

Assay [2] concerns FenA4-ThT (DNA, aptamer) ACGACCGCAGGTTGTCTGAGCCGACAGGTTGCATGTCGT
As to conditions: 10 mM NaCl; 10 mM Tris-HCl pH 7.0, 30 °C; 1 µM aptamer.

Assay [3] has as its system FenA2-ThT (DNA, aptamer) ACGACGGGCCGAGTAGTCTCCACGATTGATCGGAAGTCGT
As to conditions: 10 mM NaCl; 10 mM Tris-HCl pH 7.0, 30 °C; 1 µM aptamer; peak signal at 1:8 sensor:ThT.

Assay [4] has as its system FenA3-ThT (DNA, aptamer) CCGCAGGTCAGGTTGAGAGGATCCCGATTGCGG
As to conditions: 10 mM NaCl; 10 mM Tris-HCl pH 7.0, 30 °C; 1 µM aptamer.

For assay [5], the system named is FenA1-ThT (DNA, aptamer) ACGACCACAGGGAGTAAGAGGCCGCCAGATTGTAAGTCGT
As to conditions: 10 mM NaCl; 10 mM Tris-HCl pH 7.0, 30 °C; 1 µM aptamer.

Take `Cc1ccc2c(c1)sc(-c1ccc(N(C)C)cc1)[n+]2C`: the binding entry in assay [1] is “weak”; in assay [2], “weak”; in assay [3], “yes”; in assay [4], “weak”; in assay [5], “weak”.
